{"source": "patent US20080188510A1", "about": "“NOVEL METHODS USING ZONISAMIDE” (Eisai R & D Management Co., Ltd., priority 2005, published 2008)", "origin": "cited, not measured here", "system": "dopaminergic neurodegeneration induced by MPTP", "details": "MPTP (1-methyl-4-phenyl-1,2,3,6-tetrahydropyridine) induced; cited from earlier work"}
{"smiles": "NS(=O)(=O)Cc1noc2ccccc12", "note": "[zonisamide, 3-sulfamoylmethyl-1,2-benzisoxazole]", "values": [{"measurement": "suppressant action to dopaminergic neurodegeneration induced by MPTP", "value": "extremely strong suppressant action"}]}
